Experimental data taken from patent publication US20240425865A1, “METHODS FOR TREATING CELLULAR INFLAMMATION INDUCED BY AFB1” (priority 2023, published 2024).

Tests used:
miR-9 [1] = details: mouse, in vivo, 0.75 mg/kg
miR-9 [2] = experiment: qRT-PCR of miR-9 in MPC-5 treated with AFB1; type: cell-based
Procedure: • (1) glomeruli (n=6) were treated with AFB1 of 0.75 mg/kg at 0, 2, and 4 weeks; • (2) MPC-5 (n=6) was treated with AFB1 of 5, 10, and 20μ M; • (3) Relative expression levels of miR-9 in the glomeruli treated with (1) and in the MPC-5 treated with (2) were detected by adopting a qRT-PCR manner, respectively. u6 RNA was used as an internal reference for miRNA, a sequence of a forward primer of U6 gene was shown in SEQ ID NO.1 in Table 1, and a sequence of a reverse primer of U6 gene was shown in SEQ ID NO.2. A sequence of a forward primer of miR-9 was shown in SEQ ID NO.3, a sequence of a reverse primer of miR-9 was shown in SEQ ID NO.4, and a sequence of a primer of a stem-loop sequence that is used to increase a length of a miR-9 reverse transcription product was shown in SEQ ID No.45.

RelA [3] = details: mouse, in vivo, 0.75 mg/kg
RelA [4] = experiment: Western blot of RelA in MPC-5 cells treated with AFB1; type: cell-based
Procedure: To investigate whether RelA is involved in the reduction of the expression level of miR-9 in glomerular podocytes by AFB1, relative protein expression levels of RelA in glomeruli at 0, 2, and 4 weeks treated with AFB1 of 0.75 mg/kg, and MPC-5 cells treated with AFB1 of 5, 10, 20 uM were detected, respectively, by adopting a Western blot manner.

RelA / miR-9 promoter = type: cell-based
RelA [5] = molecular target: RelA (Mus musculus, UniProt Q04207); experiment: IP-MS of proteins interacting with RelA in MPC-5 cells; type: cell-based
RelA (Mus musculus, UniProt Q04207), sequence (Q04207 whole entry, looked up): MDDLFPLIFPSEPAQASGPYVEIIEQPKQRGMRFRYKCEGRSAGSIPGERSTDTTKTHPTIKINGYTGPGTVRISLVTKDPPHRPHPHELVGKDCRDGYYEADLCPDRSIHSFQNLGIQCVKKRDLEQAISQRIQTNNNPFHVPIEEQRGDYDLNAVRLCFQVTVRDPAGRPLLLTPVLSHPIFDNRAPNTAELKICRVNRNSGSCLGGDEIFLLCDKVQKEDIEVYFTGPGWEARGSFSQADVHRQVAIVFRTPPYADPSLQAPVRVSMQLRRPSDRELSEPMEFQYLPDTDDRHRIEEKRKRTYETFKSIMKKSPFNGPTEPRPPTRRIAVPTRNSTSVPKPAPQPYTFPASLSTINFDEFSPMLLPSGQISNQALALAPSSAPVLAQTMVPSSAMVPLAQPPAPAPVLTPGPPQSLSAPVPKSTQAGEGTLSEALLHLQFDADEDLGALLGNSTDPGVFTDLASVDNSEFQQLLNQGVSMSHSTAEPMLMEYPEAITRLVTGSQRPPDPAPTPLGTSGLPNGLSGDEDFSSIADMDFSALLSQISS
Procedure: For the analysis of RelA-binding proteins, IP-MS was used to detect proteins interacting with RelA. After incubating THE MPC-5 cells with RelA antibody overnight at 4° C., MPC-5 lysates were mixed with Protein A/G agarose beads (Amersham Biosciences) and then sodium dodecyl sulfate-polyacrylamide gel electrophoresis (SDS-PAGE) analysis and Caumas blue staining were performed for isolation of target proteins. Then, protein samples were sent to Suzhou Mass-elife Biotechnology Co. Ltd (Suzhou, China) for further analysis. For liquid chromatography-mass spectrometry (LC-MS) analysis, proteins were re-solubilized in a mixture of acetonitrile and water, and sample data was analyzed using an ultra-high-performance liquid chromatography (UHPLC) system coupled to a high-resolution mass spectrometer in Mass-elife Biotech Co. Ltd. of Suzhou (Suzhou, China). Identified proteins were analyzed for abundance using Byonic 2.13.17 (Protein Metrics, California, USA) to retrieve MS raw files on the uniport human protein database.

RelA / TRIM7 = RelA / TRIM7 (Mus musculus, UniProt Q04207); type: cell-based
RelA / TRIM7, sequence (Q04207 whole entry, looked up): as above

3′-UTR of CXCR4 gene = experiment: luciferase reporter (pMIR) with CXCR4 3′-UTR, co-transfection in MPC-5 cells; type: cell-based; details: FIG. 1C
Text: To validate the binding of miR-9 to the CXCR4 gene, 3′-UTR targeting sequences of a wild-type CXCR4 gene and a mutant-type CXCR4 gene (target site ACCAAAG was mutated to ACGGCGC) were constructed into a luciferase reporter vector pMIR to obtain recombinant luciferase reporter vectors of the wild-type and the mutant-type. Subsequently, miR-9 and negative control miRNAs (a sequence of a primer as shown in SEQ ID NO.7 and SEQ ID NO.8) were co-transfected with the recombinant luciferase reporter vector of the wild-type or the mutant type into MPC-5 cells, and results were as shown in FIG. 1C. […] The control miRNAs were unable to targetedly bind to either the 3′-UTR of the wild-type CXCR4 or the 3′-UTR of the mutant-type CXCR4, and the fluorescence values were […].

glomeruli = experiment: rAAV9-CAG-GFP-miR-9 transfection of AFB1-treated mouse, glomeruli readouts; type: in vivo; details: miR-9 increased via rAAV9-CAG-GFP-miR-9
Procedure: Relevant agents include fluorescently labeled Gr-1 antibody (CST), fluorescently labeled IFN-γ antibody (CST) or CD86 antibody (fluorescent secondary antibody: goat anti-rabbit IgG) (Abcam) and CD68 antibody (fluorescently secondary antibody: goat anti-rabbit IgG) (Abcam), and the rest of the same agents as above.
To understand the ability of miR-9 in down-regulating the CXCR4/TXNIP/NLRP3 inflammatory vesicle pathway during podocytes inflammation induced by AFB1, a 4-week-old mouse was treated with AFB1 of 0.75 mg/kg, and rAAV9-CAG-GFP-miR-9 or CAG-GFP luciferase control vector was transfected into the treated mouse, and an expression level of miR-9 in glomeruli after transfection was detected by qRT-PCR.

Substance | expression level of miR-9 in glomeruli (miR-9 [1]) | expression level of miR-9 in cells (MPC-5) (miR-9 [2]) | p-RelA/RelA in glomeruli (RelA [3]) | p-RelA/RelA in MPC-5 cells (RelA [4]) | RelA binding in the miR-9 promoter region (RelA / miR-9 promoter) | TRIM7 among RelA-interacting proteins (RelA [5]) | binding of RelA and TRIM7 (RelA / TRIM7) | expression level of RelA protein (RelA / TRIM7) | ubiquitination of RelA (RelA / TRIM7) | luciferase fluorescence values, wild-type CXCR4 3′-UTR reporter (3′-UTR of CXCR4 gene; co-transfected into MPC-5 cells) | luciferase fluorescence values, mutant-type CXCR4 3′-UTR reporter (3′-UTR of CXCR4 gene; target site ACCAAAG mutated to ACGGCGC, MPC-5 cells) | secretion of IL-1β in glomeruli (glomeruli; AFB1-treated mouse, ELISA) | secretion of IL-6 in glomeruli (glomeruli; AFB1-treated mouse, ELISA) | secretion of TNF-α in glomeruli (glomeruli; AFB1-treated mouse, ELISA) | inflammatory cell infiltration in glomeruli (glomeruli; AFB1 for 4 weeks, HE staining and flow cytometry)
Aflatoxin B1 [AFB1] | significantly reduced | significantly reduced | significant reduction | significant reduction | reduced RelA binding | significantly enriched | promoted the binding | down-regulated | increased the ubiquitination |  |  |  |  |  | 
miR-9: mmu-miR-9-5p MIMAT0000142; nucleotide sequence shown in SEQ ID No. 5 (UCUUUGGUUAUCUAGCUGUAUGA; chemistry not given here) |  |  |  |  |  |  |  |  |  | relative decrease | unchanged | decreased secretion | decreased secretion | decreased secretion | attenuated inflammatory cell infiltration
